For 18 compounds, IC50 results are on record in ChEMBL document CHEMBL1148323, “Conformationally constrained peptide analogues of pTyr-Glu-Glu-Ile as inhibitors of the Src SH2 domain binding” (J Med Chem, 2004).

A value given as a limit tells only on which side of the number the result lay.

Proto-oncogene tyrosine-protein kinase Src, sequence (P12931 2-536 limits assumed): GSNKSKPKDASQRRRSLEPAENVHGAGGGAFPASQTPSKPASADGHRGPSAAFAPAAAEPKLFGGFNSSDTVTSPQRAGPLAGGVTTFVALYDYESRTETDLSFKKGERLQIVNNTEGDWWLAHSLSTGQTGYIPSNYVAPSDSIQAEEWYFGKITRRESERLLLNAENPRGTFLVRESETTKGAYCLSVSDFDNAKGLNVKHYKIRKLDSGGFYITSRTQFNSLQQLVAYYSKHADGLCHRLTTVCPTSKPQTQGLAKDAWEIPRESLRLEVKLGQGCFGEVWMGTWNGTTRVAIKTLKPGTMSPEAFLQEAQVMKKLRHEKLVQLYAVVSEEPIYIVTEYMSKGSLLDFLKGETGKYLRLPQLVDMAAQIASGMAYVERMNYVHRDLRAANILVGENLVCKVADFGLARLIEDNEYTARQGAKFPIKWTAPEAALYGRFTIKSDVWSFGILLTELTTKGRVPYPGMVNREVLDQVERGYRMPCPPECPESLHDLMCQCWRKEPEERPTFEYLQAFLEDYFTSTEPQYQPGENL

This assay has as its target Proto-oncogene tyrosine-protein kinase Src (Homo sapiens, UniProt P12931). Put plainly: Concentration of compound required for inhibiting the binding of the fluorescent probe to the c-Src tyrosine kinase SH2 domain by 50%.
A word on the IC50: it is the concentration that gives 50% inhibition. Higher therefore signals weaker potency in that assay. In the case of `CC(=O)N[C@@H](Cc1ccc(OP(=O)(O)O)cc1)C(=O)N[C@@H](CCC(=O)O)C(=O)N[C@H](CC(=O)O)CC(=O)N[C@H](C(=O)O)C(C)C`, the IC50 stood at 25.7 µM.

For the compound `CC[C@H](C)[C@H](NC(=O)CC[C@@H]1NC(=O)[C@H](CCC(=O)O)NC(=O)[C@H](Cc2ccc(OP(=O)(O)O)cc2)NC1=O)C(=O)O`, the IC50 was found to be 1.1 µM.

`CC[C@H](C)[C@H](NC(=O)CC[C@H](NC(=O)[C@H](CCC(=O)O)NC(=O)[C@H](Cc1ccc(OP(=O)(O)O)cc1)NC(C)=O)C(=O)O)C(=O)O` returned an IC50 of 80.7 µM.

The compound `CC[C@@H](C)[C@H](NC(=O)[C@H](CCC(=O)O)NC(=O)CC[C@H](NC(=O)[C@H](Cc1ccc(OP(=O)(O)O)cc1)NC(C)=O)C(=O)O)C(=O)O` yielded an IC50 of 69.5 µM.

For `CC[C@H](C)[C@H](NC(=O)[C@H](CCC(=O)O)NC(=O)[C@@H]1CCC(=O)N[C@@H](Cc2ccc(OP(=O)(O)O)cc2)C(=O)N1)C(=O)O`, the IC50 was determined as 3.3 µM.

On to `CC[C@H](C)[C@H](NC(=O)[C@@H]1CCC(=O)N[C@@H](Cc2ccc(OP(=O)(O)O)cc2)C(=O)N[C@@H](CCC(=O)O)C(=O)N1)C(=O)O`, for which the IC50 was 5.9 µM.

For `CC[C@@H](C)[C@H](NC(=O)[C@H](CCC(=O)O)NC(=O)C[C@H](NC(=O)[C@H](Cc1ccc(OP(=O)(O)O)cc1)NC(C)=O)C(=O)O)C(=O)O`, the concentration for half-maximal inhibition (IC50) was 75.4 µM.

`CC[C@H](C)[C@H](NC(=O)C[C@@H]1NC(=O)[C@H](CCC(=O)O)NC(=O)[C@H](Cc2ccc(OP(=O)(O)O)cc2)NC1=O)C(=O)O` came in with a half-maximal inhibitory concentration (IC50) of 1.5 µM.

Regarding `CC[C@@H](C)[C@H](NC(=O)[C@H](CCC(=O)O)NC(=O)CC[C@@H]1NC(=O)[C@H](Cc2ccc(OP(=O)(O)O)cc2)NC1=O)C(=O)O`, the half-inhibitory concentration (IC50) is 1.2 µM. The IC50 values of the last two compounds are within 1.5-fold of each other.

`CC[C@@H](C)[C@H](NC(=O)[C@H](CCC(=O)O)NC(=O)CC[C@H](NC(=O)[C@@H](N)Cc1ccc(OP(=O)(O)O)cc1)C(=O)O)C(=O)O` gave an IC50 above 100 µM.

Turning to `CC[C@H](C)[C@H](NC(=O)CC[C@H](NC(=O)[C@H](CCC(=O)O)NC(=O)[C@@H](N)Cc1ccc(OP(=O)(O)O)cc1)C(=O)O)C(=O)O`, the IC50 is above 100 µM.

As for `CC[C@@H](C)[C@H](NC(=O)[C@H](CCC(=O)O)NC(=O)C[C@@H]1NC(=O)[C@H](Cc2ccc(OP(=O)(O)O)cc2)NC1=O)C(=O)O`, the IC50 is 12.1 µM.

Compound `CC[C@H](C)[C@H](NC(=O)C[C@H](NC(=O)[C@H](CCC(=O)O)NC(=O)[C@H](Cc1ccc(OP(=O)(O)O)cc1)NC(C)=O)C(=O)O)C(=O)O` gave a concentration for half-maximal inhibition (IC50) of 90.7 µM.

`CC[C@H](C)[C@H](NC(=O)C[C@H](NC(=O)[C@H](CCC(=O)O)NC(=O)[C@@H](N)Cc1ccc(OP(=O)(O)O)cc1)C(=O)O)C(=O)O` came in with an IC50 above 100 µM.

The compound `CC[C@@H](C)[C@H](NC(=O)[C@H](CCC(=O)O)NC(=O)C[C@H](NC(=O)[C@@H](N)Cc1ccc(OP(=O)(O)O)cc1)C(=O)O)C(=O)O` returned an IC50 above 100 µM.

Turning to `CC(C)[C@H](NC(=O)C[C@@H](CC(=O)O)NC(=O)[C@H](CCC(=O)O)NC(=O)[C@@H](N)Cc1ccc(OP(=O)(O)O)cc1)C(=O)O`, the IC50 came out at 76.3 µM.

Turning to `CC(=O)N[C@@H](Cc1ccc(OP(=O)(O)O)cc1)C(=O)N[C@@H](C(=O)O)C(=O)N[C@H](CCC(=O)O)CC(=O)N[C@H](C(=O)O)C(C)C`, the IC50 was found to be 34.6 µM. Against the preceding compound, the IC50 is about 2.2-fold lower.

Regarding `CC(C)[C@H](NC(=O)C[C@@H](CCC(=O)O)NC(=O)C(NC(=O)[C@@H](N)Cc1ccc(OP(=O)(O)O)cc1)C(=O)O)C(=O)O` (single isomer, unassigned), the IC50 was determined as 83.2 µM.
